Laboratory results reported in patent US10662204B2 (PFIZER INC., priority 2018, dated 2020).

How the values were obtained:
[1] = target: T1, GDP-loaded KRAS (1-169) G12C, C51S, C80L, C118S (Homo sapiens, UniProt P01116, C118S/C51S/C80L/G12C); test: Mass Spectrometry Reactivity Assay (MSRA): covalent adduct of compound and KRAS G12C, Percent Modification; assay type: binding; conditions: for MSRA (% modification) 10 μM 0.50 hr / MSRA (% modification) 10 μM 0.25 hr: 10 μM compound
T1 construct: GDP-loaded KRAS (1-169) G12C, C51S, C80L, C118S
Method: Mass Spectrometry Reactivity Assay (MSRA)
Compounds presented in the present invention covalently bind to KRAS G12C using MSRA to detect a covalent adduct of the exemplary compound and KRAS G12C.
GDP-loaded KRAS (1-169) G12C, C51S, C80L, C118S were diluted in the protein assay buffer 25 mM Hepes pH7.5, 200 mM NaCl, 5% glycerol to concentration of 5 μM and 20 μl of protein was transferred into 96-well plate. Initial compound stocks were generated at concentrations 100-fold higher that their desired assay concentrations. See K-Ras(G12C) inhibitors allosterically control GTP affinity and effector interactions; Ostrem J M, Peters U, Sos M L, Wells J A, Shokat K M; Nature. 2013, Nov. 28; 503(7477):548-51.
Exemplary compounds dissolved in DMSO were diluted 100-fold into solution containing 20 μl of 5 μM KRAS protein in the 96-well plate to initiate the reaction. Mosquito (TPP Lab tech) liquid handling robot was used to add compounds to protein solution. Typical final concentration of the compounds was 5 μM or 10 μM. The plates were placed on a shaker for 1 min at RT, sealed and incubated at room temperature for specified time period. 5 μl of reaction mix was added to 10 μl of 0.2% formic acid stop solution and mixed well. Typical end points were 1, 15, 30, and 60 min.
Data were collected using Waters Acquity H-class UPLC system/Xevo G2-XS TOF mass spectrometer. The protein was injected in their liquid phase onto a Bruker Microtrap protein column TR1/15109/03. The following buffers were used to set LC gradient: Buffer A: 0.2% formic acid H2O; B: 0.2% formic acid CAN. The protein was eluted from the column using the following LC Gradient: 0-0.4 min, 10% B to 30% B; 0.4 min-2.4 min, to 90% B, 2.5 min, 10% B, 3 min, 10% B. Initial data analysis was performed using MaxEnt software right after data acquisition.
The standard auto processing function was used to define percentage of unmodified and modified KRAS protein using MexEnt software right after data acquisition. The highest peak was defined as 100% while smaller peak as assigned the number defined by autoprocessing function. The percent of modification corresponding to modified with exemplary compound and unmodified KRAS GDP-loaded KRAS (1-169) G12C, C51S, C80L, C118S were exported to Xcel data analysis software.
The percent of modified protein at the defined concentration of exemplary compound was calculated using the following formula: % mod=Num of modified peak/Sum of modified+unmodified. The resultant value defined as Percent Modification (PM) and an increase in PM reflects that the specific compound is better than other compounds at specified compound concentration at a given time point.

KRAS G12C = KRAS G12C (Homo sapiens, UniProt P01116, G12C); test: Cell Activity Assay: accumulation of GDP-bound KRAS G12C in MIAPaCa-2 cells (Raf-1 RBD capture, MSD readout); assay type: cell-based; set-up: endogenous in cells; host or cells: MIAPaCa-2; conditions: 6 hours, assay limit is 30.00
Method: Compounds presented in the present invention lead to the accumulation of the GDP bound Ras upon treatment of human cancer cell line.
The accumulation of the GDP-bound KRAS G12C in cellular environment was measured based on the principle that KRAS G12C only binds to its downstream kinase; Raf-1 (MAP Kinase Kinase Kinase), when in its active-GTP bound state. In this state, Ras binded to a domain of Raf-1 kinase referred to as the Ras Binding Domain (RBD).
MIAPaCa-2 cells were grown in RPMI 1640 medium (Gibco 11875) supplemented with 10% fetal bovine serum and 1% penicillin/streptomycin. Cells were seeded in 96-well tissue culture plates at a density of 30,000 cells/well and allowed to attach for 16-24 hours. Test compounds were prepared as a 10 mM stock in DMSO and serially diluted in 100% DMSO using a 3-fold dilution scheme. An intermediate 5× concentrated plate in complete growth medium was made and 25 μl/well was added to the 100 μl of cells for a final concentration of 0.3% DMSO. Each concentration of exemplary compound was tested in duplicate. The negative control wells were cells with control inhibitor at 10 μM, and the positive control wells were cells without drugs, DMSO only. Plates were incubated for 6 hours at 37° C., 5% CO2. Following treatment, cells were washed 3× with ice-cold PBS and 115 μl/well ice-cold 1× Assay/Lysis. Buffer with protease inhibitors was added (25 mM HEPES, pH 7.5, 150 mM NaCl, 1% NP-40, 10 mM MgCl2, 1 mM EDTA, 2% Glycerol). Following lysis samples were frozen at −80° C.
Raf-1 RBD (LJIC-1988A1) was diluted to 100 ng/well in PBS and 5 μl/well was spot coated onto MSD high bind SECTOR plates (L15XB). Plates were incubated at room temperature for 1 hour on an orbital shaker. Plates were washed with PBS/0.05% Tween-20 and 50 μl/well of thawed lysate samples were added, followed by 50 μl of 1% MSD Blocker A in PBS/0.05 Tween-20 (R93BA). Plates were incubated for 1 hour on an orbital shaker and washed with PBS/0.05% Tween-20. 25 μl/well of Anti-pan-Ras Antibody (Cell Biolabs 244003) diluted 1:3000 was added in 1% MSD Blocker A solution and plates were incubated for 1 hour on an orbital shaker and washed with PBS/0.05% Tween-20. SULFO-TAG goat anti-mouse secondary antibody (MSD R32AC) was diluted 1:500 in MSD Blocker A solution and added at 25 μL/well. Plates were incubated for 1 hour on an orbital shaker and washed with PBS/0.05% Tween-20. 150 μl/well of Read Buffer T (MSD R92TC) diluted 1:3 in H2O was added and plates were read on a Meso Scale Discovery Sector Imager S600.
KRAS signal was normalized to maximum inhibition and DMSO control values, and IC50 values were generated using a 4 parameter fit of the dose response curve. The decrease in IC50 reflects that the exemplary compound lead to a higher level of accumulation of GDP-bound KRAS G12C than another exemplary compounds at specific timepoint of treatment of cancer cell line.

Row | SMILES | MSRA (% modification) 5.0 μM 0.017 hr ([1]; 5.0 μM compound) | IC50 (KRAS G12C) | MSRA (% modification) 10 μM 0.50 hr [1] | MSRA (% modification) 10 μM 0.25 hr ([1]; 0.25 hr) | MSRA (% modification) 5.0 μM 0.25 hr ([1]; 5.0 μM compound, 0.25 hr)
1 | C=CC(=O)N1CCN(c2nc(O[C@@H]3CN(C)C[C@H]3OC)nc3c(Oc4c(Cl)c(F)cc5[nH]ncc45)nccc23)[C@H](C)C1 [Example 34I, 1-[(3R)-4-(8-[(5-chloro-6-fluoro-1H-indazol-4-yl)oxy]-2-{[(3R,4R)-4-methoxy-1-methyl-pyrrolidin-3-yl]oxy}pyrido [3,4-d]pyrimidin-4-yl)-3-methyl-piperazin-1-yl]prop-2-en-1-one] | 52% | 0.935 µM | – | – | –
2 | C=CC(=O)N1CCN(c2ncnc3c(Oc4c(C)ccc5[nH]ncc45)cccc23)CC1 [Example 01C, 1-(4-{8-[(5-methyl-1H-indazol-4-yl)oxy]quinazolin-4-yl}piperazin-1-yl)prop-2-en-1-one] | – | 5.92 µM | 18% | – | –
3 | C=CC(=O)N1CCN(c2nc(O[C@@H]3CN(C)C[C@H]3C)nc3c(Oc4c(Cl)c(Cl)cc5[nH]ncc45)nccc23)CC1 (racemic) [Example 51I, rac-1-[4-(8-[(5,6-dichloro-1H-indazol-4-yl)oxy]-2-{[(3S,4R)-1,4-dimethyl-pyrrolidin-3-yl]oxy}pyrido [3,4-d]pyrimidin-4-yl)piperazin-1-yl]prop-2-en-1-one] | 39% | 0.031 µM | – | – | –
4 | C=CC(=O)N1CCN(c2ncnc3c(Oc4c(Cl)ccc5[nH]ncc45)cccc23)CC1 [Example 08C, 1-(4-{8-[(5-chloro-1H-indazol-4-yl)oxy]quinazolin-4-yl}piperazin-1-yl)prop-2-en-1-one] | – | 2.98 µM | 29% | – | –
5 | C=CC(=O)N1CCN(c2nc(NCCN3CCN(C)CC3)nc3c(Oc4c(C)ccc5[nH]ncc45)cccc23)CC1 [Example 19F, 1-[4-(8-[(5-methyl-1H-indazol-4-yl)oxy]-2-{[2-(4-methylpiperazin-1-yl)ethyl]amino}quinazolin-4-yl)piperazin-1-yl]prop-2-en-1-one] | – | 3.7 µM | – | 24% | –
6 | C=CC(=O)N1CCN(c2nc(N3CC(N(C)C)C3)nc3c(Oc4c(Cl)c(C)cc5[nH]ncc45)cc(Cl)cc23)CC1 [Example 11E, 1-(4-{6-chloro-8-[(5-chloro-6-methyl-1H-indazol-4-yl)oxy]-2-[3-(dimethylamino)azetidin-1-yl]quinazolin-4-yl}piperazin-1-yl)prop-2-en-1-one] | – | 3.95 µM | 68% | – | –
7 | C=CC(=O)N1CCN(c2ncnc3c(Oc4c(C)c(Cl)cc5[nH]ncc45)nc(C#N)cc23)CC1 [Example 28A, 4-(4-acryloylpiperazin-1-yl)-8-[(6-chloro-5-methyl-1H-indazol-4-yl)oxy]pyrido[3,4-d]pyrimidine-6-carbonitrile] | – | 1.02 µM | 61% | – | –
8 | C=CC(=O)N1CCN(c2nc(OCCN(C)C)nc3c(Oc4c(Cl)c(C)cc5[nH]ncc45)cc(Cl)cc23)CC1 [Example 13E, 1-(4-{6-chloro-8-[(5-chloro-6-methyl-1H-indazol-4-yl)oxy]-2-[2-(dimethylamino)ethoxy]quinazolin-4-yl}piperazin-1-yl)prop-2-en-1-one] | – | 0.452 µM | 79% | 75% | –
9 | C=CC(=O)N1CCN(c2nc(N3CC[C@@H](N(C)C)C3)nc3c(Oc4c(C)ccc5[nH]ncc45)cccc23)CC1 [Example 09E, 1-(4-{2-[(3R)-3-(dimethylamino)pyrrolidin-1-yl]-8-[(5-methyl-1H-indazol-4-yl)oxy]quinazolin-4-yl}piperazin-1-yl)prop-2-en-1-one] | – | 7.4 µM | 24% | – | –
10 | C=CC(=O)N1CCN(c2ncnc3c(Oc4c(C)ccc5[nH]ncc45)cc(Br)cc23)CC1 [Example 13C, 1-(4-{6-bromo-8-[(5-methyl-1H-indazol-4-yl)oxy]quinazolin-4-yl}piperazin-1-yl)prop-2-en-1-one] | – | 3.74 µM | 36% | – | –
11 | C=CC(=O)N1CCN(c2ncnc3c(Oc4c(Cl)c(F)cc5[nH]ncc45)nc(Cl)cc23)C[C@@H]1C [Example 36A, 1-[(2S)-4-{6-chloro-8-[(5-chloro-6-fluoro-1H-indazol-4-yl)oxy]pyrido[3,4-d]pyrimidin-4-yl}-2-methylpiperazin-1-yl]prop-2-en-1-one] | – | 4.7 µM | – | 31% | –
12 | C=CC(=O)N1CCN(c2nc(N3CC(N(C)C)C3)nc3c(Oc4c(Cl)c(C)cc5[nH]ncc45)nccc23)CC1 [Example 04E, 1-(4-{8-[(5-chloro-6-methyl-1H-indazol-4-yl)oxy]-2-[3-(dimethylamino)azetidin-1-yl]pyrido[3,4-d]pyrimidin-4-yl}piperazin-1-yl)prop-2-en-1-one] | – | 0.585 µM | 62% | 60% | 71%
13 | C=CC(=O)N1CCN(c2nc(O[C@@H]3CN(C)C[C@H]3C(F)F)nc3c(Oc4c(Cl)c(F)cc5[nH]ncc45)nccc23)CC1 (single isomer, unassigned) [Example 58I] | 58% | 0.006 µM | – | – | –
14 | C=CC(=O)N1CCN(c2nc(Oc3cccc4c3CN(C)C4)nc3c(Oc4c(Cl)c(F)cc5[nH]ncc45)nccc23)CC1 [Example 41I, 1-(4-{8-[(5-chloro-6-fluoro-1H-indazol-4-yl)oxy]-2-[(2-methyl-2,3-dihydro-1H-isoindol-4-yl)oxy]pyrido [3,4-d]pyrimidin-4-yl}piperazin-1-yl)prop-2-en-1-one] | 70% | 0.021 µM | – | – | –
